Source: patent publication US20170051034A1 (Novo Nordisk A/S, priority 2010, published 2017)
Numbered stars: 1 amine (or outer) side, 2 acyl side, 3 side chain; on linkers, the order of the positions; unused ones are H or OH. Square brackets hold non-standard residues; d marks the D form. Side chains are listed from the residue outwards. Peptide text beside a SMILES is read from it. * marks the point of attachment. Palmitoyl(16-(5-tetrazolyl)) = O=C(CCCCCCCCCCCCCCCc1nnn[nH]1)*; C18 diacid = O=C(O)CCCCCCCCCCCCCCCCC(=O)*; γGlu = O=C(O)[C@H](CCC(=O)[*:2])N[*:1]; Orn = NCCC[C@H](N)C(=O)O; AEEA = NCCOCCOCC(=O)O

Target: glucagon receptor (Homo sapiens, UniProt P47871)
Sequence (P47871 26-477): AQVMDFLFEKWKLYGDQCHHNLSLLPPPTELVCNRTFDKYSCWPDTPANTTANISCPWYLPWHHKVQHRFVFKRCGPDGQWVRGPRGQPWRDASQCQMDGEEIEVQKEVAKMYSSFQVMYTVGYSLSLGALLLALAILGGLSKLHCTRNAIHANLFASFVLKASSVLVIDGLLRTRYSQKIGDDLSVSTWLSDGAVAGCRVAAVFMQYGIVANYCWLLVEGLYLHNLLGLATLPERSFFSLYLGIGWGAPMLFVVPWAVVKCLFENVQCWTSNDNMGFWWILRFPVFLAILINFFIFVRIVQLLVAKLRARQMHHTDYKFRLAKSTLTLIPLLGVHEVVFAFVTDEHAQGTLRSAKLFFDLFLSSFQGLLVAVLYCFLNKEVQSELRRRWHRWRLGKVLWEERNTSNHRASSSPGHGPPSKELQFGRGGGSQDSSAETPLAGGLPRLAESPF
Assay: cell-based
Experimental: The cells (14000 per well) were incubated (37° C., 5% CO2) overnight in 384-well plates. Next day the cells were loaded with a calcium responsive dye that only distributed into the cytoplasm. Probenecid, an inhibitor of the organic anion transporter, was added to prevent the dye from leaving the cell. A PDE inhibitor was added to prevent formatted cAMP from being degraded. […] End point data were collected after 6 minutes. An increase in intracellular cAMP was proportional to an increased in calcium concentrations in the cytoplasm. […] EC50-values were calculated in Prism5.

Row | SMILES | EC50 [nM]
1 | CC(C)C[C@H](NC(=O)[C@H](Cc1ccc(O)cc1)NC(=O)[C@H](CCCCN)NC(=O)[C@H](CO)NC(=O)[C@H](Cc1ccc(O)cc1)NC(=O)[C@H](CC(=O)O)NC(=O)[C@H](CO)NC(=O)[C@@H](NC(=O)[C@H](Cc1ccccc1)NC(=O)[C@@H](NC(=O)CNC(=O)[C@H](CCC(N)=O)NC(=O)[C@H](CO)NC(=O)[C@@H](N)Cc1c[nH]cn1)[C@@H](C)O)[C@@H](C)O)C(=O)N[C@@H](CC(=O)O)C(=O)N[C@@H](CO)C(=O)N[C@@H](CCCCN)C(=O)N[C@@H](CCCCN)C(=O)N[C@@H](C)C(=O)N[C@@H](CCC(N)=O)C(=O)N[C@@H](CCC(=O)O)C(=O)N[C@@H](Cc1ccccc1)C(=O)N[C@H](C(=O)N[C@@H](CCCCNC(=O)COCCOCCNC(=O)COCCOCCNC(=O)[C@H](CCC(=O)O)NC(=O)CCCCCCCCCCCCCCCCC(=O)O)C(=O)N[C@@H](Cc1c[nH]c2ccccc12)C(=O)N[C@@H](CC(C)C)C(=O)N[C@@H](CC(C)C)C(=O)N[C@@H](CO)C(=O)N[C@H](C(=O)O)[C@@H](C)O)C(C)C [Example 72, N^ε24-[2-[2-[2-[[2-[2-[2-[[(2S)-4-carboxy-2-(17-carboxyheptadecanoylamino)butanoyl]amino]ethoxy]ethoxy]acetyl]amino]ethoxy]ethoxy]acetyl]-[Lys17,Lys18,Glu21,Lys24,Leu27,Ser28]-Glucagon] (H-HSQGTFTSDYSKYLDSKKAQEFVK([AEEA-AEEA-Glu-C18 diacid])WLLST-OH) | 0.057
2 | CC(C)C[C@H](NC(=O)[C@H](Cc1ccc(O)cc1)NC(=O)[C@H](CCCCN)NC(=O)[C@H](CO)NC(=O)[C@H](Cc1ccc(O)cc1)NC(=O)[C@H](CC(=O)O)NC(=O)[C@H](CO)NC(=O)[C@@H](NC(=O)[C@H](Cc1ccccc1)NC(=O)[C@@H](NC(=O)CNC(=O)[C@H](CCC(N)=O)NC(=O)[C@H](CO)NC(=O)[C@@H](N)Cc1c[nH]cn1)[C@@H](C)O)[C@@H](C)O)C(=O)N[C@@H](CC(=O)O)C(=O)N[C@@H](CO)C(=O)N[C@@H](CCCCN)C(=O)N[C@@H](CCCCN)C(=O)N[C@@H](C)C(=O)N[C@@H](CCC(N)=O)C(=O)N[C@@H](CCC(=O)O)C(=O)N[C@@H](Cc1ccccc1)C(=O)N[C@H](C(=O)N[C@@H](CCCCNC(=O)COCCOCCNC(=O)COCCOCCNC(=O)CC[C@H](NC(=O)CCCCCCCCCCCCCCCc1nnn[nH]1)C(=O)O)C(=O)N[C@@H](Cc1c[nH]c2ccccc12)C(=O)N[C@@H](CC(C)C)C(=O)N[C@@H](CC(C)C)C(=O)N[C@@H](CO)C(=O)N[C@H](C(=O)O)[C@@H](C)O)C(C)C [Example 70, N^ε24-[2-[2-[2-[[2-[2-[2-[[(4S)-4-carboxy-4-[16-(1H-tetrazol-5-yl)hexadecanoylamino]butanoyl]amino]ethoxy]ethoxy]acetyl]amino]ethoxy]ethoxy]acetyl]-[Lys^17,Lys^18,Glu^21,Lys^24,Leu^27,Ser^28]-Glucagon] (H-HSQGTFTSDYSKYLDSKKAQEFVK([AEEA-AEEA-γGlu-Palmitoyl(16-(5-tetrazolyl))])WLLST-OH) | 0.134
3 | CC(C)C[C@H](NC(=O)[C@H](Cc1ccc(O)cc1)NC(=O)[C@H](CCCCN)NC(=O)[C@H](CO)NC(=O)[C@H](Cc1ccc(O)cc1)NC(=O)[C@H](CC(=O)O)NC(=O)[C@H](CO)NC(=O)[C@@H](NC(=O)[C@H](Cc1ccccc1)NC(=O)[C@@H](NC(=O)CNC(=O)[C@H](CCC(N)=O)NC(=O)[C@H](CO)NC(=O)[C@@H](N)Cc1c[nH]cn1)[C@@H](C)O)[C@@H](C)O)C(=O)N[C@@H](CC(=O)O)C(=O)N[C@@H](CO)C(=O)N[C@@H](CCCCN)C(=O)N[C@@H](CCCNC(=N)N)C(=O)N[C@@H](C)C(=O)N[C@@H](CCC(N)=O)C(=O)N[C@@H](CCC(=O)O)C(=O)N[C@@H](Cc1ccccc1)C(=O)N[C@H](C(=O)N[C@@H](CCC(N)=O)C(=O)N[C@@H](Cc1c[nH]c2ccccc12)C(=O)N[C@@H](CC(C)C)C(=O)N[C@@H](CC(C)C)C(=O)N[C@@H](CCCCNC(=O)COCCOCCNC(=O)COCCOCCNC(=O)CC[C@H](NC(=O)CCCCCCCCCCCCCCCCC(=O)O)C(=O)O)C(=O)N[C@H](C(N)=O)[C@@H](C)O)C(C)C [Example 43, N^ε28 ([2-[2-[2-[[2-[2-[2-[[(4S)-5-hydroxy-4-[(18-hydroxy-18-oxooctadecanoyl)amino]-5-oxopentanoyl]amino]ethoxy]ethoxy]acetyl]amino]ethoxy]ethoxy]acetyl]) [Lys^17, Glu^21 Leu^27, Lys^28] Glucagon peptide amide] (H-HSQGTFTSDYSKYLDSKRAQEFVQWLLK([AEEA-AEEA-γGlu-C18 diacid])T-NH2; N-terminus assumed) | 0.003
4 | CC(C)C[C@H](NC(=O)[C@H](CC(C)C)NC(=O)[C@H](Cc1c[nH]c2ccccc12)NC(=O)[C@H](CCC(N)=O)NC(=O)[C@@H](NC(=O)[C@H](Cc1ccccc1)NC(=O)[C@H](CCC(=O)O)NC(=O)[C@H](CCC(N)=O)NC(=O)[C@H](C)NC(=O)[C@H](CCCCN)NC(=O)[C@H](CCCCN)NC(=O)[C@H](CO)NC(=O)[C@H](CC(=O)O)NC(=O)[C@H](CC(C)C)NC(=O)[C@H](Cc1ccc(O)cc1)NC(=O)[C@H](CCCCN)NC(=O)[C@H](CO)NC(=O)[C@H](Cc1ccc(O)cc1)NC(=O)[C@H](CC(=O)O)NC(=O)[C@H](CO)NC(=O)[C@@H](NC(=O)[C@H](Cc1ccccc1)NC(=O)[C@@H](NC(=O)CNC(=O)[C@H](CCC(N)=O)NC(=O)[C@H](CO)NC(=O)[C@@H](N)Cc1c[nH]cn1)[C@@H](C)O)[C@@H](C)O)C(C)C)C(=O)N[C@@H](CC(N)=O)C(=O)N[C@@H](CCCCNC(=O)COCCOCCNC(=O)COCCOCCNC(=O)CC[C@H](NC(=O)CCCCCCCCCCCCCCCCC(=O)O)C(=O)O)C(=O)O [Example 68, N^ε29-[2-[2-[2-[[2-[2-[2-[[(4S)-4-carboxy-4-(17-carboxyheptadecanoylamino)butanoyl]amino]ethoxy]ethoxy]acetyl]amino]ethoxy]ethoxy]acetyl]-[Lys^17,Lys^18,Glu^21,Leu^27,Lys^29]-Glucagon] (H-HSQGTFTSDYSKYLDSKKAQEFVQWLLNK([AEEA-AEEA-γGlu-C18 diacid])-OH) | 0.053
5 | CC(C)C[C@H](NC(=O)[C@H](Cc1ccc(O)cc1)NC(=O)[C@H](CCCCN)NC(=O)[C@H](CO)NC(=O)[C@H](Cc1ccc(O)cc1)NC(=O)[C@H](CC(=O)O)NC(=O)[C@H](CO)NC(=O)[C@@H](NC(=O)[C@H](Cc1ccccc1)NC(=O)[C@@H](NC(=O)CNC(=O)[C@H](CCC(N)=O)NC(=O)[C@H](CO)NC(=O)[C@@H](N)Cc1c[nH]cn1)[C@@H](C)O)[C@@H](C)O)C(=O)N[C@@H](CC(=O)O)C(=O)N[C@@H](CO)C(=O)N[C@@H](CCCCN)C(=O)N[C@@H](CCCCN)C(=O)N[C@@H](C)C(=O)N[C@@H](CCC(N)=O)C(=O)N[C@@H](CCC(=O)O)C(=O)N[C@@H](Cc1ccccc1)C(=O)N[C@H](C(=O)N[C@@H](CCCCNC(=O)COCCOCCNC(=O)COCCOCCNC(=O)CC[C@H](NC(=O)CCCCCCCCCCCCCCCCC(=O)O)C(=O)O)C(=O)N[C@@H](Cc1c[nH]c2ccccc12)C(=O)N[C@@H](CC(C)C)C(=O)N[C@@H](CC(C)C)C(=O)N[C@@H](CC(=O)O)C(=O)N[C@H](C(=O)O)[C@@H](C)O)C(C)C [Example 67, N^ε24-[2-[2-[2-[[2-[2-[2-[[(4S)-4-carboxy-4-(17-carboxyheptadecanoylamino)butanoyl]amino]ethoxy]ethoxy]acetyl]amino]ethoxy]ethoxy]acetyl]-[Lys^17,Lys^18,Glu^21,Lys^24,Leu^27,Asp^28]-Glucagon] (H-HSQGTFTSDYSKYLDSKKAQEFVK([AEEA-AEEA-γGlu-C18 diacid])WLLDT-OH) | 0.051
6 | CC(C)C[C@H](NC(=O)[C@H](Cc1ccc(O)cc1)NC(=O)[C@H](CCCCN)NC(=O)[C@H](CO)NC(=O)[C@H](Cc1ccc(O)cc1)NC(=O)[C@H](CC(=O)O)NC(=O)[C@H](CO)NC(=O)[C@@H](NC(=O)[C@H](Cc1ccccc1)NC(=O)[C@@H](NC(=O)CNC(=O)[C@H](CCC(N)=O)NC(=O)[C@H](CO)NC(=O)[C@@H](N)Cc1c[nH]cn1)[C@@H](C)O)[C@@H](C)O)C(=O)N[C@@H](CC(=O)O)C(=O)N[C@@H](CO)C(=O)N[C@@H](CCCCN)C(=O)N[C@@H](CCCCN)C(=O)N[C@@H](C)C(=O)N[C@@H](CCC(N)=O)C(=O)N[C@@H](CCC(=O)O)C(=O)N[C@@H](Cc1ccccc1)C(=O)N[C@H](C(=O)N[C@@H](CCCNC(=O)COCCOCCNC(=O)COCCOCCNC(=O)CC[C@H](NC(=O)CCCCCCCCCCCCCCCCC(=O)O)C(=O)O)C(=O)N[C@@H](Cc1c[nH]c2ccccc12)C(=O)N[C@@H](CC(C)C)C(=O)N[C@@H](CC(C)C)C(=O)N[C@@H](CO)C(=O)N[C@H](C(=O)O)[C@@H](C)O)C(C)C [Example 73, N^ε24-[2-[2-[2-[[2-[2-[2-[[(4S)-4-carboxy-4-(17-carboxyheptadecanoylamino)butanoyl]amino]ethoxy]ethoxy]acetyl]amino]ethoxy]ethoxy]acetyl]-[Lys^17,Lys^18,Glu^21,Orn^24,Leu^27,Ser^28]-Glucagon] (H-HSQGTFTSDYSKYLDSKKAQEFV[Orn]([AEEA-AEEA-γGlu-C18 diacid])WLLST-OH) | 0.036
7 | CC(C)C[C@H](NC(=O)[C@H](Cc1ccc(O)cc1)NC(=O)[C@H](CCCCN)NC(=O)[C@H](CO)NC(=O)[C@H](Cc1ccc(O)cc1)NC(=O)[C@H](CC(=O)O)NC(=O)[C@H](CO)NC(=O)[C@@H](NC(=O)[C@H](Cc1ccccc1)NC(=O)[C@@H](NC(=O)CNC(=O)[C@H](CCC(N)=O)NC(=O)[C@H](CO)NC(=O)[C@@H](N)Cc1c[nH]cn1)[C@@H](C)O)[C@@H](C)O)C(=O)N[C@@H](CC(=O)O)C(=O)N[C@@H](CO)C(=O)N[C@@H](CCCCN)C(=O)N[C@@H](CCCCN)C(=O)N[C@@H](C)C(=O)N[C@@H](CCC(N)=O)C(=O)N[C@@H](CCC(=O)O)C(=O)N[C@@H](Cc1ccccc1)C(=O)N[C@H](C(=O)N[C@@H](CCCCNC(=O)COCCOCCNC(=O)CC[C@H](NC(=O)CCCCCCCCCCCCCCCCC(=O)O)C(=O)O)C(=O)N[C@@H](Cc1c[nH]c2ccccc12)C(=O)N[C@@H](CC(C)C)C(=O)N[C@@H](CC(C)C)C(=O)N[C@@H](CO)C(=O)N[C@H](C(=O)O)[C@@H](C)O)C(C)C [Example 71, N^ε24-[2-[2-[2-[[(4S)-4-carboxy-4-(17-carboxyheptadecanoylamino)butanoyl]amino]ethoxy]ethoxy]acetyl]-[Lys^17,Lys^18,Glu^21,Lys^24,Leu^27,Ser^28]-Glucagon] (H-HSQGTFTSDYSKYLDSKKAQEFVK([AEEA-γGlu-C18 diacid])WLLST-OH) | 0.032
